One data set is described as follows: Solubility (Table 1). The class given is physicochemical.
A short description of a further data set: t1/2 in serum (Table 1). The class given is in vitro ADME.
A short description of data set [1]: t1/2 in PB (7.4) (Table 1). The class given is physicochemical. The conditions noted are these: for t1/2 in PB (7.4): result in words; for half-life: pH 7.4.
For a further data set, the system named is cornea epithelium. The data set is described as follows: differential scanning calorimetry of cornea epithelium of treated enucleated albino rabbit eyes. On the procedure: The reduced cornea damage by polyethylene glycol flurbiprofenate and bis-flurbiprofenate prodrugs in albino rabbit eyes was assessed by differential scanning calorimetry. Tests were conducted to investigate the effects of flurbiprofen and the polyethylene glycol flurbiprofen ester and the diester prodrugs on the cornea epithelium. […] The effects of these drugs on the molecular structure of the cornea epithelium were assessed by differential scanning calorimetry. Fresh enucleated albino rabbit eyes were treated in solutions and also in suspensions of flurbiprofen and also in solutions and suspensions of the polyethylene glycol esters and diesters of flurbiprofen in isotonic glutathione buffered ringer solution for 10 minutes. The cornea epithelium was then scraped from the corneas and immediately analyzed by differential scanning calorimetry over the range of 40°-110° C.
Whenever a normal rabbit's cornea epithelium was analyzed a large endothermic transition at 64°±2° C. was observed. It has been established by previous work that this particular peak which was observed was due to a lipid.backslash.protein phase transition.
Background: In DSC, transitions show as peaks or steps in heat flow.

For data set [2] the following is noted: animal and human experiments; cited from earlier work.
Another data set deals with Salmonella. The conditions noted are these: Ames type assays and chronic exposure studies; cited from earlier work.
A further data set concerns skin. The note with it: cited from earlier work.
For data set [3] the following is noted: man; cited from earlier work.
For data set [4] the following is noted: applied for treatment of inflammation; cited from earlier work.
The test system of the next data set is cornea. The note with it: in vitro; cited from earlier work.
The next data set concerns rabbit eye. The data set is described as follows: irritancy in the rabbit eye, daily drops for seven days. The class given is in vivo. The conditions noted are these: for degree of irritation to the cornea as compared to flurbiprofen in the acid form: 25 microliters (monoester, flurbiprofen) or 30 microliters (diester) into each eye daily, seven days, slit lamp, electron microscopy; for conversion into the flurbiprofen acid form during transport into the eye: aqueous humor and vitreous humor after seven days. The method, then: Another experiment was performed with tetraethylene glycol flurbiprofenate and tetraethylene glycol bis-flurbiprofenate to determine the irritancy of these prodrugs in the rabbit eye.
25 microliters of tetraethylene flurbiprofenate were dropped into each eye of two rabbits each day for seven days. Also, 30 microliters of tetraethylene glycol bis-flurbiprofenate was dropped into each eye of two rabbits each day for 7 days. A control using 25 microliters of flurbiprofen was dropped into each eye of two rabbits for seven days. Each morning the rabbit's eyes were examined by slit lamp for evidence of cornea damage and irritation. After seven days the animals were sacrificed and samples of the aqueous humor and vitreous humor were obtained for analysis of flurbiprofen and a flurbiprofen ester. The eyes were also examined by electron microscopy. […] The test was repeated using 10 microliters of each of the substances each day for seven days with similar results.

[5] abbreviates: PB (7.4), read-out: t1/2 in PB (7.4) (converted).

Values after ≈ are worked out from the molar mass of the structure shown. Where two headings read alike, the source gives them in different places.

On to `COc1ccc2cc(C(C)C(=O)OCCOCCOCCOC(=O)C(C)c3ccc4cc(OC)ccc4c3)ccc2c1` (stereo not drawn) [Compound G-192.2], for which the solubility in “Solubility (Table 1)” (read-out: Solubility) is less than 0.1 µg/mL. In addition, in “t1/2 in serum (Table 1)” (read-out: t1/2 in serum), the half-life came out at 0.833 h. The “t1/2 in PB (7.4)” value in [1] (PB (7.4)) is “low solubility”.

Regarding benzalkonium chloride, the “intensity of the phase transition peak of cornea epithelium by DSC” value in the data set with cornea epithelium (compounds known to damage the cornea) is recorded as “greatly reduce the intensity of this observed peak”.

In the case of `COc1ccc2cc(C(C)C(=O)OCCOCCOCCOCCOC(=O)C(C)c3ccc4cc(OC)ccc4c3)ccc2c1` (stereo not drawn) [Compound G-219.2, diester of naproxen and tetraethylene glycol], the solubility in “Solubility (Table 1)” (read-out: Solubility) is less than 0.1 µg/mL. Besides, the half-life in the data set “t1/2 in serum (Table 1)” (read-out: t1/2 in serum) was 0.433 h. For the same compound, in data set [1] (PB (7.4)), the “t1/2 in PB (7.4)” value was “very slow”.

For the compound `CN1CCCC1=O` [N-methyl-2-pyrrolidone], in data set [2], the “irritation or sensitization potential” value is reported as “very little irritation or sensitization potential”. Moreover, in the data set with Salmonella, the toxicity entry was “have not revealed any significant toxicity”. Further, in the data set on skin, the penetration enhancement entry was “effective penetration enhancer”.

On to `CC(C(=O)OCCOCCOCCOCCOCCOCCO)c1ccc(-c2ccccc2)c(F)c1` (stereo not drawn) [TC-242.2, hexaethylene glycol flurbiprofenate], for which, in the data set “Solubility (Table 1)” (read-out: Solubility), the solubility is 445 ± 34 µg/mL (≈ 875 µM). In addition, in “t1/2 in serum (Table 1)” (read-out: t1/2 in serum), the half-life was found to be 0.367 h. Further, the “t1/2 in PB (7.4)” value in data set [1] (PB (7.4)) is “several days”.

Consider `CC(C(=O)O)c1ccc(-c2ccccc2)c(F)c1` (stereo not drawn) [flurbiprofen, 2(2-fluoro-4-biphenylyl)propionic acid], for which the irritation entry in data set [3] was “irritating in man”. For the same compound, in data set [4], the local irritation entry was “produces local irritation”. In addition, the “normal protein/lipid structure of cornea epithelium” value in the data set with cornea epithelium was “substantially total breakdown of the normal protein/lipid structure”. For the same compound, the cornea barrier function entry with cornea is “impairs cornea barrier function in vitro”.

Consider `CC1(C)O[C@@H]2C[C@H]3[C@@H]4CCC5=CC(=O)C=C[C@]5(C)[C@@]4(F)[C@@H](O)C[C@]3(C)[C@]2(C(=O)COC(=O)OCCOCCO)O1` [Compound G-197.1, carbonate linked ester of triamcinolone acetonide and diethylene glycol], for which the solubility in the data set “Solubility (Table 1)” came out at 74 ± 3 µg/mL (≈ 131 µM). Further, the half-life in the data set “t1/2 in serum (Table 1)” is 0.167 h; in data set [1] (pb), 101 h.

`COc1ccc2cc(C(C)C(=O)OCCOCCOCCOCCOCCOCCOC(=O)C(C)c3ccc4cc(OC)ccc4c3)ccc2c1` (stereo not drawn) [Compound G-220.2, diester of naproxen and hexaethylene glycol]: in “Solubility (Table 1)” (read-out: Solubility), the solubility was less than 0.1 µg/mL. Also, in “t1/2 in serum (Table 1)” (read-out: t1/2 in serum), the half-life was determined as 0.833 h. Also, the “t1/2 in PB (7.4)” value in data set [1] (PB (7.4)) is “very slow”.

As to `COc1ccc2cc(C(C)C(=O)OCCOCCOC(=O)C(C)c3ccc4cc(OC)ccc4c3)ccc2c1` (stereo not drawn) [Compound G-195.2, diester of naproxen and diethylene glycol], the solubility in the data set “Solubility (Table 1)” (read-out: Solubility) is less than 0.1 µg/mL. Also, in “t1/2 in serum (Table 1)” (read-out: t1/2 in serum), the half-life was 1.25 h. Besides, the “t1/2 in PB (7.4)” value in [1] (PB (7.4)) is reported as “low solubility”.

For the compound `CC(C(=O)OCCOCCOCCOCCOC(=O)C(C)c1ccc(-c2ccccc2)c(F)c1)c1ccc(-c2ccccc2)c(F)c1` (stereo not drawn) [Compound G-202.2, tetraethylene glycol bis-2-(2-fluoro-4-biphenylyl)propionate], the solubility in the data set “Solubility (Table 1)” (read-out: Solubility) was less than 0.1 µg/mL. For the same compound, in the data set with rabbit eye, the “degree of irritation to the cornea as compared to flurbiprofen in the acid form” value is reported as “significantly reduced” and the “conversion into the flurbiprofen acid form during transport into the eye” value is “converted into the flurbiprofen acid form during transport into the eye”. Moreover, the half-life in the data set “t1/2 in serum (Table 1)” (read-out: t1/2 in serum) was found to be 3.67 h. The “t1/2 in PB (7.4)” value in [1] (PB (7.4)) is “low solubility”.

Take `COc1ccc2cc(C(C)C(=O)OCCOCCOCCOCCOCCOCCO)ccc2c1` (stereo not drawn) [Compound G-220.1]: the solubility in the data set “Solubility (Table 1)” (read-out: Solubility) stood at 6430 ± 617 µg/mL (≈ 13000 µM). Besides, in “t1/2 in serum (Table 1)” (read-out: t1/2 in serum), the half-life stood at 0.0617 h. Also, the “t1/2 in PB (7.4)” value in data set [1] (PB (7.4)) is on record as “several days”.

`CC1(C)O[C@@H]2C[C@H]3[C@@H]4CCC5=CC(=O)C=C[C@]5(C)[C@@]4(F)[C@@H](O)C[C@]3(C)[C@]2(C(=O)COC(=O)OCCOCCOCCOCCO)O1` [Compound G-196.1, carbonate linked ester of triamcinolone acetonide and tetraethylene glycol] returned a solubility in the data set “Solubility (Table 1)” of 391 ± 49 µg/mL (≈ 597 µM). Also, the half-life in the data set “t1/2 in serum (Table 1)” was 3.8 h; in [1] (pb) it was 136 h.

In the case of `CC(C(=O)OCCOCCOCCOCCOCCOCCOC(=O)C(C)c1ccc(-c2ccccc2)c(F)c1)c1ccc(-c2ccccc2)c(F)c1` (stereo not drawn) [TC-242.1, hexaethylene glycol bis-flurbiprofenate], the solubility in “Solubility (Table 1)” (read-out: Solubility) was less than 0.1 µg/mL. Also, in “t1/2 in serum (Table 1)” (read-out: t1/2 in serum), the half-life came to 2.78 h. Moreover, in data set [1] (PB (7.4)), the “t1/2 in PB (7.4)” value is “very slow”.

On to `COc1ccc2cc(C(C)C(=O)OCCOCCOCCO)ccc2c1` (stereo not drawn) [Compound G-192.1], for which, in “Solubility (Table 1)” (read-out: Solubility), the solubility is 943 ± 25 µg/mL (≈ 2600 µM). Moreover, the values for the half-life (in “t1/2 in serum (Table 1)” (read-out: t1/2 in serum); in [1] (setting [5])) were 0.217 h and 230 h, respectively.

On to `COc1ccc2cc(C(C)C(=O)OCCOCCO)ccc2c1` (stereo not drawn) [Compound G-195.1], for which, in “Solubility (Table 1)” (read-out: Solubility), the solubility was found to be 553 ± 27 µg/mL (≈ 1740 µM). Further, the half-life in “t1/2 in serum (Table 1)” (read-out: t1/2 in serum) was 0.967 h; in data set [1] (setting [5]) it was 80 h.

As to `CC(C(=O)OCCOCCOCCO)c1ccc(-c2ccccc2)c(F)c1` (stereo not drawn) [Compound G-60], the solubility in “Solubility (Table 1)” (read-out: Solubility) stood at 135 ± 4 µg/mL (≈ 359 µM). Moreover, the values for the half-life (in the data set “t1/2 in serum (Table 1)” (read-out: t1/2 in serum); in data set [1] (setting [5])) were 0.75 h and 175 h, respectively.

Turning to `COc1ccc2cc(C(C)C(=O)OCCOCCOCCOCCO)ccc2c1` (stereo not drawn) [Compound G-167, monoester of naproxen and tetraethylene glycol], the solubility in “Solubility (Table 1)” (read-out: Solubility) stood at 1120 ± 31 µg/mL (≈ 2740 µM). Moreover, the results for the half-life (in “t1/2 in serum (Table 1)” (read-out: t1/2 in serum); in [1] (setting [5])) were 0.0833 h and 300 h, respectively.

`CC(C(=O)OCCOCCOCCOCCO)c1ccc(-c2ccccc2)c(F)c1` (stereo not drawn) [Compound G-202.1, tetraethylene glycol 2-(2-fluoro-4-biphenylyl)propionate]: the solubility in “Solubility (Table 1)” (read-out: Solubility) was found to be 228 ± 5 µg/mL (≈ 542 µM). Also, in the data set with rabbit eye, the “degree of irritation to the cornea as compared to flurbiprofen in the acid form” value is on record as “significantly reduced”. The “conversion into the flurbiprofen acid form during transport into the eye” value in the data set on rabbit eye is given as “converted into the flurbiprofen acid form during transport into the eye”. In addition, the half-life is 0.533 h in the data set “t1/2 in serum (Table 1)” (read-out: t1/2 in serum) and 144 h in data set [1] (setting [5]).

What is called solubility is the dissolved amount per volume that the medium holds.

The values are drawn from patent publication US5681964A, “Permeable, non-irritating prodrugs of nonsteroidal and steroidal agents” (University of Kentucky Research Foundation, priority 1994, dated 1997).
